ChEMBL document CHEMBL5321208, “The effect of side chain variations on quinazoline-pyrimidine G-quadruplex DNA ligands” (Eur J Med Chem, 2023)
Activity calls are given as the source filed them. No cut-off for these calls is given here.

Columns and labels:
Quadruplex DNA [1] = experiment: Binding affinity to FAM/TAMRA-labelled parallel KRAS G4 DNA (unknown origin) assessed as thermal stabilization at highest concentration at 10 to 95 degreeC by FRET analysis; assay type: nucleic-acid assay
Quadruplex DNA [2] = experiment: Binding affinity to FAM/TAMRA-labelled parallel KRAS G4 DNA (unknown origin) assessed as thermal stabilization at lowest concentration at 10 to 95 degreeC by FRET analysis; assay type: nucleic-acid assay
dsDNA = experiment: Binding affinity to double stranded DNA (unknown origin) assessed as thermal stabilization at 1 to 8 uM measured at 10 to 95 degreeC by FRET analysis; assay type: nucleic-acid assay; details: dose 1-8 µM
Quadruplex DNA [3] = experiment: Binding affinity to FAM/TAMRA-labelled parallel c-MYC Pu24T G4 DNA (unknown origin) assessed as thermal stabilization at 1 to 8 uM measured at 10 to 95 degreeC by FRET analysis; assay type: nucleic-acid assay; details: dose 1-8 µM
Quadruplex DNA [4] = experiment: Binding affinity to FAM/TAMRA-labelled c-MYC Pu22 G4 DNA (unknown origin) assessed as thermal stabilization at 1 to 8 uM measured at 10 to 95 degreeC by FRET analysis; assay type: nucleic-acid assay; details: dose 1-8 µM
Quadruplex DNA [5] = experiment: Binding affinity to FAM/TAMRA-labelled c-KIT1 G4 DNA (unknown origin) assessed as thermal stabilization at 1 to 8 uM measured at 10 to 95 degreeC by FRET analysis; assay type: nucleic-acid assay; details: dose 1-8 µM
Quadruplex DNA [6] = experiment: Binding affinity to FAM/TAMRA-labelled c-KIT2 G4 DNA (unknown origin) assessed as thermal stabilization at 1 to 8 uM measured at 10 to 95 degreeC by FRET analysis; assay type: nucleic-acid assay; details: dose 1-8 µM
Quadruplex DNA [7] = experiment: Binding affinity to FAM/TAMRA-labelled 21g G4 DNA (unknown origin) assessed as thermal stabilization at 1 to 8 uM measured at 10 to 95 degreeC by FRET analysis; assay type: nucleic-acid assay; details: dose 1-8 µM
Quadruplex DNA [8] = experiment: Binding affinity to FAM/TAMRA-labelled parallel 25ceb G4 DNA (unknown origin) assessed as thermal stabilization at 1 to 8 uM measured at 10 to 95 degreeC by FRET analysis; assay type: nucleic-acid assay; details: dose 1-8 µM
Quadruplex DNA [9] = experiment: Binding affinity to FAM/TAMRA-labelled antiparallel Bom17 G4 DNA (unknown origin) assessed as thermal stabilization at 1 to 8 uM measured at 10 to 95 degreeC by FRET analysis; assay type: nucleic-acid assay; details: dose 1-8 µM
Quadruplex DNA [10] = experiment: Binding affinity to FAM/TAMRA-labelled antiparallel TBA G4 DNA (unknown origin) assessed as thermal stabilization at 1 to 8 uM measured at 10 to 95 degreeC by FRET analysis; assay type: nucleic-acid assay; details: dose 1-8 µM
Quadruplex DNA [11] = experiment: Binding affinity to FAM/TAMRA-labelled parallel c-MYC Pu24T G4 DNA (unknown origin) assessed as thermal stabilization in the presence of 15 equivalents of double stranded DNA by FRET competition assay; assay type: nucleic-acid assay
Quadruplex DNA [12] = experiment: Binding affinity to FAM/TAMRA-labelled parallel KRAS G4 DNA (unknown origin) assessed as thermal stabilization in the presence of 15 equivalents of double stranded DNA by FRET competition assay; assay type: nucleic-acid assay
Quadruplex DNA [13] = experiment: Binding affinity to FAM/TAMRA-labelled parallel c-MYC Pu24T G4 DNA (unknown origin) assessed as thermal stabilization by measuring change in melting temperature at 2 uM in the presence of 100 equivalents of double stranded DNA by FRET competition assay; assay type: nucleic-acid assay
Quadruplex DNA [14] = experiment: Binding affinity to FAM/TAMRA-labelled parallel KRAS G4 DNA (unknown origin) assessed as thermal stabilization by measuring change in melting temperature at 2 uM in the presence of 100 equivalents of double stranded DNA by FRET competition assay; assay type: nucleic-acid assay
Quadruplex DNA [15] = experiment: Binding affinity to parallel c-MYC Pu24T G4 DNA (unknown origin) assessed as change in topology at 5 uM by CD spectra analysis; assay type: nucleic-acid assay
Quadruplex DNA [16] = experiment: Binding affinity to parallel c-MYC Pu24T G4 DNA (unknown origin) assessed as thermal stabilization by measuring change in melting temperature at 5 uM measured at 1:1 DNA to ligand ratio by CD spectra analysis; assay type: nucleic-acid assay
Quadruplex DNA [17] = experiment: Binding affinity to 5'-Cy5-labelled parallel c-MYC Pu24T G4 DNA (unknown origin) assessed as dissociation constant by MST analysis; assay type: nucleic-acid assay
[18] = Antitumor activity against KPC mouse pancreatic cancer organoid expressing lentiviral modified GFP co-cultured with WT C57BL/6J mouse pancreatic stellate cells expressing mKate2 assessed as inhibition of cell growth incubated for 5 days by resazurin dye based fluorescence microscopic analysis; assay type: functional, tissue-based; details: 120 h
[19] = Cytotoxicity against wildtype C57BL/6J mouse cancer activated fibroblast cells assessed as inhibition of cell growth incubated for 5 days by resazurin dye based fluorescence microscopic analysis; assay type: toxicity

SMILES | Activity (Quadruplex DNA [1]) | Activity (Quadruplex DNA [2]) | Activity (dsDNA) | Activity (Quadruplex DNA [3]) | Activity (Quadruplex DNA [4]) | Activity (Quadruplex DNA [5]) | Activity (Quadruplex DNA [6]) | Activity (Quadruplex DNA [7]) | Activity (Quadruplex DNA [8]) | Activity (Quadruplex DNA [9]) | Activity (Quadruplex DNA [10]) | Activity (Quadruplex DNA [11]) | Activity (Quadruplex DNA [12]) | ΔTm (Quadruplex DNA [13]) [°C] | ΔTm (Quadruplex DNA [14]) [°C] | Activity (Quadruplex DNA [15]) | ΔTm (Quadruplex DNA [16]) [°C] | Kd (Quadruplex DNA [17]) [µM] | IC50 [18] [µM] | IC50 at 5 days [19] [µM]
Cc1cc(NCCc2c[nH]c3ccccc23)nc(Nc2nc(C)c3ccc4c(c3n2)CCCC4)n1 | Active | inactive | inactive |  |  |  |  |  |  |  |  |  |  |  |  |  |  |  |  | 
Cc1cc(NCCc2c[nH]c3ccccc23)nc(Nc2nc(C)c3ccc4c(c3n2)CCC4)n1 | Active | inactive | inactive |  |  |  |  |  |  |  |  |  |  |  |  |  |  |  |  | 
Cc1cc(NCCCN2CCCC2)nc(Nc2nc(C)c3ccc4c(c3n2)CCC4)n1 |  |  | inactive | Active | Active | Active | Active | Active | inactive | inactive | inactive | Active | Active | 7 | 10 | inactive | 5 | 0.275 | 0.161 | 2.52
